Data on four molecules can be found in ChEMBL document CHEMBL1129897 (Bioorg Med Chem Lett, 1997).

Usually Ki stands for a measure of affinity in units of concentration, obtained from inhibition or displacement. A low value points to tighter binding.

The target of the assay is 5-hydroxytryptamine receptor 2A (Rattus norvegicus, UniProt P14842). Briefly: Tested in vitro for its ability to inhibit [3H]ketanserin binding to 5-hydroxytryptamine 2A receptor in rat frontal cortex membranes. It counts as cell membranes, Membrane.
Sequence of 5-hydroxytryptamine receptor 2A (P14842 whole entry): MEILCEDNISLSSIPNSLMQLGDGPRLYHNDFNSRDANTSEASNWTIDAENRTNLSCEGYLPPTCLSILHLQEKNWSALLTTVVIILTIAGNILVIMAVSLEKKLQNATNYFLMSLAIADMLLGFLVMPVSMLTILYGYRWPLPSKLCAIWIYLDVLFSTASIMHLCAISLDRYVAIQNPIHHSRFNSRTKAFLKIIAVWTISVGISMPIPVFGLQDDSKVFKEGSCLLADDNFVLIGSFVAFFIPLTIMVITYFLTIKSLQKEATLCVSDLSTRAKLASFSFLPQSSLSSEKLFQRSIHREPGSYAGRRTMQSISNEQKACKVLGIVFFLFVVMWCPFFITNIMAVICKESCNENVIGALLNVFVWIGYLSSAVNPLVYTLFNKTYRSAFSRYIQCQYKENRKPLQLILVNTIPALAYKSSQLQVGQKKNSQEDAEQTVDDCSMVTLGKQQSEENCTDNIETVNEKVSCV
`CCc1c(C)[nH]c2c1C(=O)CC(CN1CCC(c3noc4cc(F)ccc34)CC1)C2` (centres undefined) had an inhibitory constant (Ki) of 5.01 nM.
`CCc1c(C)[nH]c2c1C(=O)CC(CN1CCN(c3ccccc3OC)CC1)C2` (centres undefined) showed a Ki of 282 nM.
Then `CCc1c(C)[nH]c2c1C(=O)CC(CN1CCC(C(=O)c3ccc(F)cc3)CC1)C2` (centres undefined), with 6.17 nM; and `CCc1c(C)[nH]c2c1C(=O)CC(CN1CCN(CCCC(=O)c3ccc(F)cc3)CC1)C2` (centres undefined), with 398 nM.
